ChEMBL document CHEMBL1157898 (Bioorg Med Chem Lett, 2010)

Test system: H4
Assay: Toxicity in human H4 cells at 10 uM
Assay type: cell-based
Settings: h4, 10 µM

## COc1cc(OC)c(C=C2C(O)=Nc3ccccc32)c(OC)c1 [IC261]
  Activity: 40 µM
